From ChEMBL document CHEMBL5120844, “Discovery of novel non-steroidal selective glucocorticoid receptor modulators by structure- and IGN-based virtual screening, structural optimization, and biological evaluation” (Eur J Med Chem, 2022)
The source made the active and inactive calls. The calls are words filed in the database; no cut-off is given here.

How the values were obtained:
HeLa = experiment: Inhibition of NF-kappaB transcriptional activity in human HeLa cells transfected with NF-kappaB-Luc at 10 uM by dual-luciferase reporter gene assay relative to control; type: cell-based
RAW264.7 [1] = experiment: Anti-inflammatory activity against mouse RAW264.7 cells assessed as inhibition of LPS-induced NO production at 25 uM incubated for 16 hrs by Greiss reagent assay; type: functional, cell-based
RAW264.7 [2] = experiment: Cytotoxicity against mouse RAW264.7 cells assessed as reduction in cell viability at 25 uM incubated for 48 hrs by MTT assay; type: toxicity, cell-based; conditions: raw264.7, 48 h
[3] = biological target: T1, Glucocorticoid receptor (Homo sapiens) (UniProt P04150); experiment: Binding affinity to recombinant human GST-tagged glucocorticoid receptor ligand binding domain at 10 uM by TR-FRET assay relative to control; conditions: filed as modulator
T1 sequence (whole entry): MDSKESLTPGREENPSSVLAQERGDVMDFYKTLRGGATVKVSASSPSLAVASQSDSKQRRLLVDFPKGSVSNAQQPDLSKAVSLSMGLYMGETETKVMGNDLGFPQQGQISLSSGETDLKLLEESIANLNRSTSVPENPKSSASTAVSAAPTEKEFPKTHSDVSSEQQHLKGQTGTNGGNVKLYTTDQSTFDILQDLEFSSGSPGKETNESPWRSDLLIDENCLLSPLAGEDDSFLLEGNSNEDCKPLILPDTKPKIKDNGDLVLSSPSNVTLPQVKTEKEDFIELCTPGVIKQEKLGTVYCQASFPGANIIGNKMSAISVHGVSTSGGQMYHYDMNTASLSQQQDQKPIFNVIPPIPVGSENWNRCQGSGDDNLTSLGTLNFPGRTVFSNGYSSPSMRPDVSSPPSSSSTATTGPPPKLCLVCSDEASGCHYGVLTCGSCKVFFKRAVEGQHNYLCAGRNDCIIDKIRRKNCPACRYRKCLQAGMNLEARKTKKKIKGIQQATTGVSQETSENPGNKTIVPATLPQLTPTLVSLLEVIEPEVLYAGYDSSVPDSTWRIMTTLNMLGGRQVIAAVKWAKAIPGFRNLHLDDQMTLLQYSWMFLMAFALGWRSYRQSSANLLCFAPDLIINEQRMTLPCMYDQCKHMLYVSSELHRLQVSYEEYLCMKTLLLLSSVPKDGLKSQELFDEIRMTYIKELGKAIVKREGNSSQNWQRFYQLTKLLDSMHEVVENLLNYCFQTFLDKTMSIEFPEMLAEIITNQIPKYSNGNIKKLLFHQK

[4] = biological target: T1, Glucocorticoid receptor (Homo sapiens); experiment: (§1) Binding affinity to recombinant human GST-tagged glucocorticoid receptor ligand binding domain by TR-FRET assay relative to control; conditions: filed as modulator, DDE = dose-dependent effect
Glucocorticoid receptor = biological target: T2, Glucocorticoid receptor (Homo sapiens, UniProt P04150); experiment: as §1
T2 sequence (P04150 whole entry): T1 sequence (whole entry)

A549 = experiment: Anti-inflammatory activity against human A549 cells assessed as reduction in TNFalpha induced IL-1beta mRNA expression level by qRT-PCR analysis; type: functional, cell-based
MG-63 [5] = experiment: Induction of osteoporosis in human MG-63 cells assessed as decrease in OPG mRNA expression level at 10 uM by qRT-PCR analysis; type: functional, cell-based
MG-63 [6] = experiment: Induction of osteoporosis in human MG-63 cells assessed as decrease in RANKL mRNA expression level at 10 uM by qRT-PCR analysis; type: functional, cell-based
[7] = Inhibition of NF-kappaB transcriptional activity in human HeLa cells transfected with NF-kappaB-Luc by dual-luciferase reporter gene assay; type: cell-based
RAW264.7 [8] = experiment: Anti-inflammatory activity against mouse RAW264.7 cells assessed as reduction in LPS-induced IL-1beta mRNA expression level preincubated for 1 hr followed by LPS addition and measured after 16 hrs by qRT-PCR analysis; type: functional, cell-based; conditions: time 17.0 hrs
RAW264.7 [9] = experiment: Anti-inflammatory activity against mouse RAW264.7 cells assessed as reduction in LPS-induced IL-6 mRNA expression level preincubated for 1 hr followed by LPS addition and measured after 16 hrs by qRT-PCR analysis; type: functional, cell-based; conditions: time 17.0 hrs
RAW264.7 [10] = experiment: Anti-inflammatory activity against mouse RAW264.7 cells assessed as reduction in LPS-induced COX-2 mRNA expression level preincubated for 1 hr followed by LPS addition and measured after 16 hrs by qRT-PCR analysis; type: functional, cell-based; conditions: time 17.0 hrs
NIH3T3 = experiment: Cytotoxicity against mouse 3T3 cells assessed as reduction in cell viability after 24 hrs by MTT assay; type: toxicity, cell-based; conditions: nih3t3, 24 h
[11] = biological target: T3, Progesterone receptor (Homo sapiens) (UniProt P06401); experiment: Agonist activity at progesterone receptor (unknown origin) expressed in PC3 cells co-transfected with ARR3tk-luciferase/Renilla at 10 to 25 uM incubated for 16 hrs by luciferase reporter gene assay; type: cell-based; conditions: PC-3, filed as agonist, dose 10-25 µM
T3 sequence (whole entry): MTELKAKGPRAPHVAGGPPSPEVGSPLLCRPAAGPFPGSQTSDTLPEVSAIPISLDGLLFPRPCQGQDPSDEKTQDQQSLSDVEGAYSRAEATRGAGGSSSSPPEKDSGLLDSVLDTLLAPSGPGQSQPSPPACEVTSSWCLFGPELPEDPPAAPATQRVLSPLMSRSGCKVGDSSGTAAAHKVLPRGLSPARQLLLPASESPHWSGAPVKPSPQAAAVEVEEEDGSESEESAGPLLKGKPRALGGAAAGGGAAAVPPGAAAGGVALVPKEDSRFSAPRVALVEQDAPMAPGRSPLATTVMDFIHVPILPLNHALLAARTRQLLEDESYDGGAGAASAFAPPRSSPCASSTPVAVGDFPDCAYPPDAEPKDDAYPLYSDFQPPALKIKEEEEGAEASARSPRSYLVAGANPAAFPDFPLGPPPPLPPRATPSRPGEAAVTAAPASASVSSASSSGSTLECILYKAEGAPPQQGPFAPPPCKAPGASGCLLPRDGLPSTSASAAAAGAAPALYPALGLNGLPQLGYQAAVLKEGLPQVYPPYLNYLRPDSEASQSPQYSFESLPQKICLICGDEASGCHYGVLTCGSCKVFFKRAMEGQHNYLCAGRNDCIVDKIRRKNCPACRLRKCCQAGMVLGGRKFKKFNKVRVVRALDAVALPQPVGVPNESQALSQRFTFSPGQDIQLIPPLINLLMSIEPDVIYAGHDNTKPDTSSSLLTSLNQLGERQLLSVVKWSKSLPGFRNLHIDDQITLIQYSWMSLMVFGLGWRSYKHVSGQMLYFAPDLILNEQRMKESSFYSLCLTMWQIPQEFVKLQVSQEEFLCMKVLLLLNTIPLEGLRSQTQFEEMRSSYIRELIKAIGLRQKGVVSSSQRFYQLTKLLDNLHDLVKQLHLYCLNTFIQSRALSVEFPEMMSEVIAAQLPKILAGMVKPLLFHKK

[12] = biological target: T4, Mineralocorticoid receptor (Homo sapiens) (UniProt P08235); experiment: Agonist activity at mineralocorticoid receptor (unknown origin) expressed in HEK293T cells co-transfected with pGL4.36[luc2P MMTV Hygro]/Renilla at 10 to 25 uM incubated for 16 hrs by luciferase reporter gene assay; type: cell-based; conditions: filed as agonist, dose 10-25 µM
T4 sequence (whole entry): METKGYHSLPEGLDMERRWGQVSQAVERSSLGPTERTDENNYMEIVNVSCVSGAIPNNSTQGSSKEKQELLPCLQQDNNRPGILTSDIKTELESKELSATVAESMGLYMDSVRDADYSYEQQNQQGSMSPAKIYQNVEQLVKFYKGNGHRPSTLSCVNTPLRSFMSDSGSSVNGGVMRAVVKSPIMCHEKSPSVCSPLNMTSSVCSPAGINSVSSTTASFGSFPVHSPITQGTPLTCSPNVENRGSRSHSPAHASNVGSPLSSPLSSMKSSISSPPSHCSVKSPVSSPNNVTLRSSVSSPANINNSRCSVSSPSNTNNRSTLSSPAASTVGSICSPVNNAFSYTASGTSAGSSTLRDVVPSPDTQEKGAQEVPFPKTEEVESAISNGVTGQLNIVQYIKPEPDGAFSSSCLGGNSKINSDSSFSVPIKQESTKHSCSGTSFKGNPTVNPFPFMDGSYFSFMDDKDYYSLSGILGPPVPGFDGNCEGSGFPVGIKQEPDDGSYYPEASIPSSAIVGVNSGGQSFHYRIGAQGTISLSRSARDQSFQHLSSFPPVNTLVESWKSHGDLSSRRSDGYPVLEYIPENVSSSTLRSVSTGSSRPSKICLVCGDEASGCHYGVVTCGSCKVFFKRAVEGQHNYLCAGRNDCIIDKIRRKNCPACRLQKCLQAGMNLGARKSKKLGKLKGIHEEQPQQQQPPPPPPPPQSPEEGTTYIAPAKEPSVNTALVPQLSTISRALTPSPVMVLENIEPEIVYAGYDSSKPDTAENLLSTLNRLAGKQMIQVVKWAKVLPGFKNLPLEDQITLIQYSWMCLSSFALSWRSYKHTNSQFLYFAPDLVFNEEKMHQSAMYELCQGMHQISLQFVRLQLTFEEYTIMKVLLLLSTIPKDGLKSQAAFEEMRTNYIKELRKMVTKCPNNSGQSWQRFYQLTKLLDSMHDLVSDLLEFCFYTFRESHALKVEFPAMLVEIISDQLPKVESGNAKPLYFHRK

RAW264.7 [13] = experiment: Anti-inflammatory activity against mouse RAW264.7 cells assessed as reduction in LPS-induced […] mRNA expression level preincubated for 1 hr followed by LPS addition and measured after 16 hrs by qRT-PCR analysis; type: functional, cell-based; conditions: time 17.0 hrs

SMILES: O=C(c1ccc(Cn2c(=S)[nH]c3ccc(Br)cc3c2=O)cc1)N1CCN(c2cccc(Cl)c2)CC1
- inhibition (HeLa): 54.1%

SMILES: CC(NC(=O)c1ccc(Cn2c(=S)[nH]c3ccsc3c2=O)cc1)c1ccccc1 (configuration not stated)
- inhibition (RAW264.7 [1]): Active
- Activity (RAW264.7 [2]): Non-Toxic
- inhibition (HeLa): 86.9%
- Activity [3]: < 60%
- Activity [4]: Dde
- IC50 (Glucocorticoid receptor): 2.05 µM
- Activity (A549): Active
- Activity (MG-63 [5]): Toxic
- Activity (MG-63 [6]): Non-Toxic
- IC50 [7]: 2.32 µM
- Activity (RAW264.7 [8]): Active
- Activity (RAW264.7 [9]): Active
- Activity (RAW264.7 [10]): Active

SMILES: Cc1ccc(S(=O)(=O)NCc2ccc(C(=O)NC(C)c3ccccc3)cc2)cc1 (configuration not stated)
- inhibition (HeLa): 51.3%

SMILES: O=C(c1ccc2c(=O)n(Cc3ccc(Cl)cc3)c(=S)[nH]c2c1)N(CCO)Cc1ccccc1
- inhibition (HeLa): 75.8%

SMILES: COc1ccc(CNC(=O)c2ccc(Cn3c(=S)[nH]c4ccsc4c3=O)cc2)cc1
- inhibition (HeLa): 93.1%
- IC50 [7]: 7.38 µM

SMILES: CC(NC(=O)c1ccc(Cn2c(=S)[nH]c3ccsc3c2=O)cc1)c1ccc2c(c1)OCO2 (configuration not stated)
- inhibition (HeLa): 94.6%
- IC50 [7]: 5.14 µM

SMILES: C[C@H](NC(=O)c1ccc(Cn2c(=S)[nH]c3ccsc3c2=O)cc1)c1ccccc1
- IC50 [7]: 1.92 µM
- Activity (NIH3T3): Non-Toxic
- Activity (RAW264.7 [8]): Active
- Activity (RAW264.7 [9]): Active
- Activity (RAW264.7 [10]): Active

SMILES: O=C(NCc1cccnc1)c1ccc(Cn2c(=S)[nH]c3ccsc3c2=O)cc1
- inhibition (HeLa): 76%

SMILES: COc1ccccc1Nc1nc(C(=O)N(CC(=O)NC2CC2)Cc2ccccc2)cs1
- inhibition (HeLa): 99.9%
- IC50 [7]: 1.07 µM

SMILES: CC(C)[C@H](NC(=O)C(C)(F)F)[C@H](Oc1ccc2c(cnn2-c2ccc(=O)n(C)c2)c1)c1ccccc1
- Activity (MG-63 [5]): Toxic
- Activity (MG-63 [6]): Non-Toxic

SMILES: CC(NC(=O)c1ccc(CN2CCc3ccccc3C2)cc1)c1ccccc1 (configuration not stated)
- inhibition (HeLa): 49.1%

SMILES: Cn1c(=O)n(C)c2cc(NC(=O)c3ccc(CN4CCc5ccccc5C4)cc3)ccc21
- inhibition (HeLa): 10.6%

SMILES: C[C@@H](NC(=O)c1ccc(Cn2c(=S)[nH]c3ccsc3c2=O)cc1)c1ccccc1
- IC50 [7]: 3.8 µM
- Activity (NIH3T3): Non-Toxic
- Activity (RAW264.7 [8]): Active
- Activity (RAW264.7 [9]): Active
- Activity (RAW264.7 [10]): Active

SMILES: CC(NC(=O)c1ccc(CN2CC(=O)N3CSC[C@@H]3C2=O)cc1)c1ccccc1 (some centres not stated)
- inhibition (HeLa): 34.1%

SMILES: O=C(c1ccc(Cn2c(=S)[nH]c3ccsc3c2=O)cc1)N1CCc2ccccc2C1
- inhibition (HeLa): 106%
- IC50 [7]: 0.99 µM

SMILES: C[C@@H]1C[C@H]2[C@@H]3CCC4=CC(=O)C=C[C@]4(C)[C@@]3(F)[C@@H](O)C[C@]2(C)[C@@]1(O)C(=O)CO
- inhibition (RAW264.7 [1]): Active
- Activity (A549): Active
- Activity [11]: Active
- Activity [12]: Active
- Activity (MG-63 [5]): Toxic
- Activity (MG-63 [6]): Non-Toxic
- Activity (RAW264.7 [8]): Active
- Activity (RAW264.7 [13]): Active

SMILES: O=C(Nc1ccccc1C(=O)NCc1cccnc1)c1ccc(CN2CCc3ccccc3C2)cc1
- inhibition (HeLa): 89%
- IC50 [7]: 6.61 µM

SMILES: CC(NC(=O)c1ccc(/C=C2/Sc3ccccc3NC2=O)cc1)c1ccc2c(c1)OCCO2 (configuration not stated)
- inhibition (HeLa): 67%
- IC50 [7]: 18.3 µM
